This passage reports IC50 and IC90 results from article PMC10892871 (Viruses, 2024).

In this assay the test system is Omicron BQ.1.1 SARS-CoV-2 variant. In kind it is cell-based.

Where “and” joins values, the source holds several entries; their conditions need not be identical. Identical values can stand only once.

As a reminder, the IC50 is the concentration needed to halve the response being measured. One may read the IC90 as the concentration needed for an effect of 90%. `O=c1nc(NO)ccn1[C@@H]1O[C@H](CO)[C@@H](O)[C@H]1O` [EIDD-1931, reference compound]: for the setting “read-out: IC50 vs. BQ.1.1 Mean ± SD”, the IC50 is 1590 nM and 1600 nM. Moreover, under “read-out: IC90 vs. BQ.1.1 Mean ± SD”, the IC90 amounted to 1800 ± 700 nM.
